Tested on: CTLL-2 cells
Format: cell-based

Row | Sequence | effect of the dimeric peptides on proliferation of CTLL-2 cells (synthesis of new DNA)
1 | GLFAGFIENGWEGCGGEKEKEK [non-IS #2] | no significant effect
2 | GLFGAAGFIENGWEGCGGEKEKEK [non-IS #1] | much less

Source: patent US10961279B2 (priority 2011, dated 2021)
